Experimental findings from paper PMC9250534, “Synthesis and direct assay of large macrocycle diversities by combinatorial late-stage modification at picomole scale” (Nature Communications, 2022) are described below.

The assay addresses T1, thrombin (Homo sapiens, UniProt P00734).
T1 construct: consists of two polypeptide chains of 36 (light chain) and 259 amino acid
Description: Thrombin inhibition screen of crude macrocycle reactions (residual thrombin activity, fluorogenic substrate Z-Gly-Gly-Arg-AMC). The class given is biochemical. Conditions: 10 µM macrocycle concentration; for % thrombin activity, Original screen / % thrombin activity, Repeat screen: macrocycles containing acid 14, crude reaction; for % thrombin activity, Repeat screen: replicate reaction and screen; for percent residual thrombin activity: crude reactions, Library 1a-l, scaffold AA1-AA2-AA3 combined with 1-16 or '-'. Summed up:
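Residual activity was measured as the AMC release rate after adding 50 μM Z-Gly-Gly-Arg-AMC. This followed a 10-min room-temperature preincubation of 2 nM thrombin with 10 μM single macrocycles in pH 7.4 Tris buffer (0.6% DMSO). Percent inhibition was taken against the mean slope of DMSO controls.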

Numbered stars: 1 amine (or outer) side, 2 acyl side, 3 side chain; on linkers, the order of the positions; unused ones are H or OH. Bridge positions count the residues as written; N and C are the ends. Square brackets hold non-standard residues; d marks the D form. Peptide text beside a SMILES is read from it. * marks the point of attachment. ξ: configuration not given here. ξPro(4-NHCO(5-Cl-2-thienyl)) = O=C(NC1CNC(C(=O)O)C1)c1ccc(Cl)s1; Nicotinoyl(6-OMe) = COc1ccc(C(=O)*)cn1; 2Thenoyl(5-Cl) = O=C(c1ccc(Cl)s1)*; Pyrazinecarbonyl = O=C(c1cnccn1)*; Cysteamide = C(CS[*:3])N[*:1]; X3 = O=C(Cc1c[nH]c2ccccc12)*; Isovaleryl = CC(C)CC(=O)*; Api = NC1(C(=O)O)CCNCC1; Dap = NC[C@H](N)C(=O)O; Mpa = O=C(O)CCS

With `O=C(NC[C@@H]1NC(=O)[C@@H]2CCCN2C(=O)CCSSCCNC(=O)[C@@H](Cc2ccccc2)NC1=O)c1ccc(Cl)s1` [X B1 D3 f] ([Mpa]P[Dap](2Thenoyl(5-Cl))[dF]-Cysteamide; disulfide 1-C), the “% thrombin activity, Original screen” value is on record as 86.2% and the “% thrombin activity, Repeat screen” value worked out at 88.2%.
`CC(C)CC(=O)NCCCC[C@@H]1NC(=O)[C@H](CC(C)C)NC(=O)CCSSCCNC(=O)[C@@H]2CCCN2C1=O` [L-D1-B1/8] ([Mpa]LK(Isovaleryl)P-Cysteamide; disulfide 1-C): the “percent residual thrombin activity” value came to 109.409%.
Regarding `CC(C)CC(=O)NCCCC[C@@H]1NC(=O)[C@@H]2CCCN2C(=O)[C@@H](C)NC(=O)CCSSCCNC1=O` [a-B1-D1/8] ([Mpa][dA]PK(Isovaleryl)-Cysteamide; disulfide 1-C), the “percent residual thrombin activity” value is listed as 110.343%.
The same measure, in the same setting: the value for `C[C@H]1NC(=O)CCSSCCNC(=O)c2cccc(c2)CNC(=O)[C@H](CCCCNC(=O)c2ccc(Cl)s2)NC1=O` [a-D1-B5/14] was 102.51%.
`O=C1CCSSCCNC(=O)[C@H](Cc2ccccc2)NC(=O)[C@H](CNC(=O)c2ccc(Cl)s2)NC(=O)C2(CC2)CN1` [X B6 D3 F]: the “% thrombin activity, Original screen” value turned out to be 70.7% and the “% thrombin activity, Repeat screen” value was found to be 68.6%.
For `O=C1CCSSCCNC(=O)[C@H](CO)NC(=O)c2ccc(cc2)CNC(=O)[C@H](CCCCNC(=O)c2c[nH]c(=O)[nH]c2=O)N1` [D1-B3-S/11], the “percent residual thrombin activity” value was 105.178%.
Same read-out and setting: the value for `COc1ccc(C(=O)NCCCC[C@@H]2NC(=O)CCSSCCNC(=O)c3ccc(cc3)CNC(=O)[C@H](CO)NC2=O)cn1` [D1-S-B3/10] was 111.469%; that for `C[C@H]1NC(=O)[C@H](CCCNC(=O)Cc2c[nH]c3ccccc23)NC(=O)CCSSCCNC(=O)CCNC1=O` [D2-a-B2/12] was 109.862%.
Turning to `O=C1CCSSCCNC(=O)C2CC(NC(=O)c3ccc(Cl)s3)CN2C(=O)C2CCCN(C2)C(=O)C(Cc2ccccc2)N1` (centres unmarked) [X f B4 D5], the “% thrombin activity, Original screen” value worked out at 91.9% and the “% thrombin activity, Repeat screen” value was found to be 99.4%.
Take `O=C1CCSSCCNC(=O)[C@H](Cc2c[nH]c3ccccc23)NC(=O)[C@H](CCCNC(=O)c2ccccc2)NC(=O)C2(CC2)CN1` [B6-D2-W/1]: the “percent residual thrombin activity” value was 97.8863%.
For `COc1ccc(C(=O)NCCCC[C@@H]2NC(=O)[C@@H]3CCCN3C(=O)CCSSCCNC(=O)[C@@H](Cc3ccc(O)cc3)NC2=O)cn1` [B1-D1-y/10] ([Mpa]PK(Nicotinoyl(6-OMe))[dY]-Cysteamide; disulfide 1-C), the “percent residual thrombin activity” value was found to be 109.958%.
Take `COc1ccc(C(=O)NCCCC[C@@H]2NC(=O)[C@H](C(C)C)NC(=O)CCSSCCNC(=O)[C@@H]3CCCN3C2=O)cn1` [v-D1-B1/10] ([Mpa]VK(Nicotinoyl(6-OMe))P-Cysteamide; disulfide 1-C): the “percent residual thrombin activity” value stood at 104.488%.
On the same count and under the same terms, the value for `CC(C)C[C@@H]1NC(=O)[C@H](CCCNC(=O)COc2ccccc2)NC(=O)C2(CC2)CNC(=O)CCSSCCNC1=O` [B6-D2-L/13] was 118.291%; that for `COc1ccc(C(=O)NCCCC[C@@H]2NC(=O)CCSSCCNC(=O)C3(CC3)CNC(=O)[C@H](CO)NC2=O)cn1` [D1-S-B6/10] was 102.192%; that for `O=C(COc1ccccc1)NCCCC[C@@H]1NC(=O)C2(CC2)CNC(=O)[C@H](Cc2c[nH]c3ccccc23)NC(=O)CCSSCCNC1=O` [W-B6-D1/13] was 88.7647%.
On to `O=C1NCCSSCCC(=O)N2CC(NC(=O)c3ccc(Cl)s3)CC2C(=O)NC(CO)C(=O)NCc2ccc1cc2` (centres unmarked) [X D5 s B3], for which the “% thrombin activity, Original screen” value worked out at 92.6% and the “% thrombin activity, Repeat screen” value is recorded as 101.4%.
As to `NCCCC[C@@H]1NC(=O)C2(CC2)CNC(=O)[C@H](Cc2c[nH]c3ccccc23)NC(=O)CCSSCCNC1=O` [W-B6-D1/-], the “percent residual thrombin activity” value was 87.3276%.
The same measure, in the same setting: the value for `O=C1CCNC(=O)[C@H](Cc2c[nH]cn2)NC(=O)CCSSCCNC(=O)[C@H](CCCNC(=O)c2c[nH]c(=O)cn2)N1` [H-B2-D2/9] was 106.277%; that for `CC(C)CC(=O)NCCC[C@@H]1NC(=O)CCSSCCNC(=O)[C@H](C(C)C)NC(=O)[C@H]2CCCN(C2)C1=O` [D2-B4-V/8] was 110.86%.
In the case of `CC[C@H](C)[C@@H]1NC(=O)CCNC(=O)[C@H](CCCNC(=O)c2ccc(Cl)s2)NC(=O)CCSSCCNC1=O` [X D2 B2 I], the “% thrombin activity, Original screen” value amounted to 101.0% and the “% thrombin activity, Repeat screen” value was found to be 92.2%.
In the case of `NCCCC[C@@H]1NC(=O)C2(CC2)CNC(=O)CCSSCCNC(=O)[C@H](CCC(N)=O)NC1=O` [B6-D1-Q/-], the “percent residual thrombin activity” value stood at 103.82%.
Still for that read-out and setting: the value for `O=C1CCSSCCNC(=O)[C@H](CCCCNC(=O)c2ccco2)NC(=O)[C@H](Cc2ccc(O)cc2)NC(=O)C2(CC2)CN1` [B6-Y-D1/16] was 103.228%.
With `CC(C)[C@H]1NC(=O)CCSSCCNC(=O)c2cccc(c2)CNC(=O)[C@@H](CNC(=O)c2ccc(Cl)s2)NC1=O` [X v D4 B5], the “% thrombin activity, Original screen” value was 103.4% and the “% thrombin activity, Repeat screen” value was determined as 104.1%.
Regarding `O=C1CCNC(=O)[C@H](CO)NC(=O)[C@H](CCCNC(=O)c2ccc(Cl)s2)NC(=O)CCSSCCN1` [D2-S-B2/14], the “percent residual thrombin activity” value came out at 105.361%.
As to `O=C1CCSSCCNC(=O)[C@H](Cc2c[nH]c3ccccc23)NC(=O)[C@H](CCCNC(=O)Cc2c[nH]c3ccccc23)NC(=O)C2(CC2)CN1` [B6-D2-W/12], the “percent residual thrombin activity” value is on record as 93.2541%.
Regarding `O=C1CCSSCCNC(=O)[C@H](CO)NC(=O)[C@H](CNC(=O)c2ccc(Cl)s2)NC(=O)CCN1` [X B2 D3 S], the “% thrombin activity, Original screen” value is given as 83.8% and the “% thrombin activity, Repeat screen” value was 76.6%. Moreover, under “listed as X B2 D3 s”, the “% thrombin activity, Original screen” value was found to be 102.4% and the “% thrombin activity, Repeat screen” value was 99.4%.
Consider `O=C1CCSSCCNC(=O)[C@H](Cc2ccccc2)NC(=O)[C@H]2CCCN(C2)C(=O)[C@H](CNC(=O)c2ccc(Cl)s2)N1` [X D3 B4 F], for which the “% thrombin activity, Original screen” value was 66.8% and the “% thrombin activity, Repeat screen” value is reported as 62.9%.
In the case of `CC(C)CC1NC(=O)C2CCCN2C(=O)CCSSCCNC(=O)C2CC(NC(=O)c3ccc(Cl)s3)CN2C1=O` (centres unmarked) [X B1 L D5] ([Mpa]PL[ξPro(4-NHCO(5-Cl-2-thienyl))]-Cysteamide; disulfide 1-C; configuration not given here), the “% thrombin activity, Original screen” value amounted to 94.2% and the “% thrombin activity, Repeat screen” value came out at 99.9%.
As for `O=C1CNC(=O)[C@@H]2CCCN2C(=O)[C@@H](NC(=O)c2ccc(Cl)s2)CSSCCNC(=O)[C@H](Cc2ccccc2)N1` [C B1 G F] ({2Thenoyl(5-Cl)}-CPGF-Cysteamide; disulfide 1-C), the “% thrombin activity, Original screen” value is listed as 91.5% and the “% thrombin activity, Repeat screen” value came out at 96.1%.
On the same counts, the results for `O=C1CCNC(=O)[C@H](Cc2c[nH]cn2)NC(=O)CCSSCCNC(=O)[C@H](CCCNC(=O)c2ccc(Cl)s2)N1` [X H B2 D2] are 94.6% and 91.5%.
For `O=C1CCSSCCNC(=O)C2CCCN2C(=O)C2(CCN(C(=O)c3ccc(Cl)s3)CC2)NC(=O)C(CO)N1` (centres unmarked) [X s D6 B1] ([Mpa]S[Api](2Thenoyl(5-Cl))P-Cysteamide; disulfide 1-C; configuration not given here) the same measures were 97.6% and 99.9%.
For `O=C1CNC(=O)c2ccc(cc2)CNC(=O)[C@@H](NC(=O)c2ccc(Cl)s2)CSSCCNC(=O)[C@H](Cc2cnc[nH]2)N1` [C B3 G H] the same measures were 103.1% and 116.7%.
Turning to `CC(C)[C@@H]1NC(=O)[C@H](CNC(=O)c2ccc(Cl)s2)NC(=O)[C@H]2CCCN(C2)C(=O)CCSSCCNC1=O` [X B4 D3 V], the “% thrombin activity, Original screen” value is given as 62.4% and the “% thrombin activity, Repeat screen” value turned out to be 58.2%.
With `CC[C@H](C)[C@@H]1NC(=O)[C@H](CCCNC(=O)c2ccco2)NC(=O)c2cccc(c2)CNC(=O)CCSSCCNC1=O` [B5-D2-I/16], the “percent residual thrombin activity” value was 105.125%.
Still for that read-out and setting: the value for `O=C(Cc1c[nH]c2ccccc12)NCCCC[C@@H]1NC(=O)[C@@H](Cc2ccc(O)cc2)NC(=O)CCSSCCNC(=O)[C@@H]2CCCN2C1=O` [y-D1-B1/12] ([Mpa][dY]K(X3)P-Cysteamide; disulfide 1-C) was 104.378%.
Turning to `O=C1CCSSCCNC(=O)C2CCCN(C2)C(=O)C2CC(NC(=O)c3ccc(Cl)s3)CN2C(=O)C(Cc2ccc(O)cc2)N1` (centres unmarked) [X y D5 B4], the “% thrombin activity, Original screen” value came out at 109.6% and the “% thrombin activity, Repeat screen” value is on record as 115.2%.
As to `CC(C)[C@@H]1NC(=O)[C@H]2CCCN(C2)C(=O)[C@H](CCCNC(=O)COc2ccccc2)NC(=O)CCSSCCNC1=O` [D2-B4-V/13], the “percent residual thrombin activity” value was found to be 112.633%.
As for `O=C(NCCCCC1NC(=O)C2CCCN(C2)C(=O)CCSSCCNC(=O)C(CO)NC1=O)c1ccc(Cl)s1` (centres unmarked) [X B4 D1 S], the “% thrombin activity, Original screen” value amounted to 96.9% and the “% thrombin activity, Repeat screen” value was determined as 99.9%.
Consider `NC(=O)CCC1NC(=O)C(CCCCNC(=O)c2cnccn2)NC(=O)CCSSCCNC(=O)C2CCCN2C1=O` (centres unmarked) [D1-Q-B1/2] ([Mpa]K(Pyrazinecarbonyl)QP-Cysteamide; disulfide 1-C; configuration not given here), for which the “percent residual thrombin activity” value is listed as 104.356%.
Regarding `O=C1CCSSCCNC(=O)[C@H](CNC(=O)c2ccc(Cl)s2)NC(=O)[C@H](Cc2ccccc2)NC(=O)CCN1` [X B2 F D3], the “% thrombin activity, Original screen” value is listed as 34.0% and the “% thrombin activity, Repeat screen” value turned out to be 33.5%.
